The text below walks through data of BindingDB's records for doi:10.1021/acs.jmedchem.8b01436 (University of New South Wales, 2019).

One may read the IC50 as the concentration that gives 50% inhibition.

Peptide text beside a SMILES is read from it.

This assay in a line: Inhibition of (2S,8S,11S,14S)-2-(4-aminobutyl)-14-(3-guanidinopropyl)-8-(4-hydroxybenzyl)-11-(hydroxymethyl)-4,7,10,13,16,32-hexaoxo-36-((3aS,4S,6aR)-2-oxohexahydro-1H-thieno[3,4-d]imidazol-4-yl)-19,22,25,28-tetraoxa-3,6,9,12,15,31-hexaazahexatriacontan-1-oic acid binding to human Hsp72 SBD expressed in Escherichia coli BL21 (DE3) by Western.
Compound `C[C@H](NC(=O)[C@H](CCCCN)NC(=O)[C@H](CCCNC(=N)N)NC(=O)[C@H](CO)NC(=O)[C@H](Cc1ccc(O)cc1)NC(=O)CNC(=O)[C@@H](N)CCCCN)C(=O)O` (H-KGYSRKA-OH) gave an IC50 of 70 µM.
Compound `N=C(N)NCCC[C@H](NC(=O)[C@H](CO)NC(=O)[C@H](Cc1ccc(O)cc1)NC(=O)CNC(=O)[C@@H](N)CCCCN)C(=O)O` (H-KGYSR-OH) showed an IC50 of 87.3 µM.
The compound `N=C(N)NCCC[C@H](NC(=O)[C@H](CO)NC(=O)[C@H](Cc1ccc(O)cc1)NC(=O)CNC(=O)[C@@H](N)CCCCN)C(=O)N[C@@H](CCCCN)C(=O)O` (H-KGYSRK-OH) displayed an IC50 of 248 µM.
Under `C[C@H](NC(=O)[C@H](C)NC(=O)[C@H](CCCCN)NC(=O)[C@H](CCCNC(=N)N)NC(=O)[C@H](CO)NC(=O)[C@H](Cc1ccc(O)cc1)NC(=O)CNC(=O)[C@@H](N)CCCCN)C(=O)O` (H-KGYSRKAA-OH) stands 6.43 µM.
